# Measurements reported in patent US4022791A (priority 1975, dated 1977).
# Tested on: mice
# Experiment: not given
# Details: mouse, in vivo, ip
Compound,Tail Flick 2 hr (percentage of analgesia response),Tail Flick .5 hr (percentage of analgesia response)
COc1ccc(Cl)c2c1CCC(CNCC1CC1)=C2,0,20
COc1ccc(Cl)c2c1CCC(CN1CCC(C(=O)N3CCCC3)CC1)=C2,0,25
Codeine Sulfate [reference compound],50,100
COc1ccc(Cl)c2c1CCC(CN1CCC(NC(=O)N3CCCCC3)CC1)=C2,0,0
"CCC(=O)O[C@](Cc1ccccc1)(c1ccccc1)[C@H](C)CN(C)C [d-Propoxyphene, reference compound]",20,40
COc1ccc(Cl)c2c1CCC(CN1CCC(C(=O)N3CCCCC3)CC1)=C2,0,40
COc1ccc(Cl)c2c1CCC(CN1CCN(c3ccc(Cl)cc3)CC1)=C2,0,0
COc1ccc(Cl)c2c1CCC(CN1CCN(CCO)CC1)=C2,0,10

# Tested on: mice
# Experiment: animal or person
# Format: in vivo, mouse
# Details: Mus musculus, ip, read-out: Tail Pinch ED50
row,Compound,ED50 [mg/kg]
1,"CCC(=O)O[C@](Cc1ccccc1)(c1ccccc1)[C@H](C)CN(C)C [d-Propoxyphene, reference compound]",11.5

# Same assay, conditions: mouse, in vivo, ip
Compound,Tail Pinch 2 hr (percentage of mice showing analgesia),Tail Pinch .5 hr (percentage of mice showing analgesia),Tail Pinch ED50 [mg/kg]
COc1ccc(Cl)c2c1CCC(CNCC1CC1)=C2,0,40,–
COc1ccc(Cl)c2c1CCC(CN1CCC(C(=O)N3CCCC3)CC1)=C2,0,0,–
Codeine Sulfate [reference compound],–,–,15.4
COc1ccc(Cl)c2c1CCC(CN1CCC(NC(=O)N3CCCCC3)CC1)=C2,0,0,–
COc1ccc(Cl)c2c1CCC(CN1CCC(C(=O)N3CCCCC3)CC1)=C2,0,0,–
COc1ccc(Cl)c2c1CCC(CN1CCN(c3ccc(Cl)cc3)CC1)=C2,0,0,–
COc1ccc(Cl)c2c1CCC(CN1CCN(CCO)CC1)=C2,0,40,–

# Tested on: Rats
# Experiment: not given
# Design: Rat Jump .5 hr (current at which the animal first jumps) / Rat Jump .5 hr, second value printed in parentheses / Rat Jump 2 hr (current at which the animal first jumps): unit not given here
# Details: in vivo, ip
Compound,Rat Jump 2 hr (current at which the animal first jumps),Rat Jump .5 hr (current at which the animal first jumps)
COc1ccc(Cl)c2c1CCC(CNCC1CC1)=C2,1.2,1.2
COc1ccc(Cl)c2c1CCC(CN1CCC(C(=O)N3CCCC3)CC1)=C2,1.2,1.2
Codeine Sulfate [reference compound],–,> 2.2
COc1ccc(Cl)c2c1CCC(CN1CCC(NC(=O)N3CCCCC3)CC1)=C2,1.2,1.2
"CCC(=O)O[C@](Cc1ccccc1)(c1ccccc1)[C@H](C)CN(C)C [d-Propoxyphene, reference compound]",–,1.2
COc1ccc(Cl)c2c1CCC(CN1CCC(C(=O)N3CCCCC3)CC1)=C2,1.2,1.6
COc1ccc(Cl)c2c1CCC(CN1CCN(c3ccc(Cl)cc3)CC1)=C2,1.2,1.2
COc1ccc(Cl)c2c1CCC(CN1CCN(CCO)CC1)=C2,1.2,1.2

# Tested on: mice
# Experiment: not given
# Details: mouse, in vivo, ip
# Remark: another data set of the same source
Compound,Hot Plate 2 hr (percentage of mice showing analgesia),Hot Plate .5 hr (percentage of mice showing analgesia)
COc1ccc(Cl)c2c1CCC(CNCC1CC1)=C2,10,40
COc1ccc(Cl)c2c1CCC(CN1CCC(C(=O)N3CCCC3)CC1)=C2,0,25
Codeine Sulfate [reference compound],60,80
COc1ccc(Cl)c2c1CCC(CN1CCC(NC(=O)N3CCCCC3)CC1)=C2,0,0
"CCC(=O)O[C@](Cc1ccccc1)(c1ccccc1)[C@H](C)CN(C)C [d-Propoxyphene, reference compound]",0,60
COc1ccc(Cl)c2c1CCC(CN1CCC(C(=O)N3CCCCC3)CC1)=C2,0,20
COc1ccc(Cl)c2c1CCC(CN1CCN(c3ccc(Cl)cc3)CC1)=C2,0,10
COc1ccc(Cl)c2c1CCC(CN1CCN(CCO)CC1)=C2,20,50

# Tested on: Rats
# Experiment: not given
# Details: rat, in vivo, ip
row,Compound,Amphetamine Antagonism Activity (dosage approximately neutralizing the amphetamine effect) [mg/kg]
1,Codeine Sulfate [reference compound],> 32

# Tested on: not listed separately
# Experiment: Analgesic and tranquilizing effectiveness, summary of Examples 10 and 11
# Format: in vivo
# Details: not given
row,Compound,analgesic and tranquilizing effectiveness
1,"COc1ccc(Cl)c2c1CCC(CN1CCC(OC(C)=O)(c3ccccc3)CC1)=C2 [1-(2-[8-Chloro-5-methoxy-3,4-dihydronaphthyl]methyl)-4-acetoxy-4-phenylpiperidine]",outstanding effectiveness

# Tested on: not listed separately
# Experiment: Toxicity and adverse effects noted (comments), species not stated
# Format: in vivo
# Details: at 100 mg./kg.
# Text: (§1) The tabulated test results include comments regarding toxicity and adverse effects noted with certain compounds.
row,Compound,toxicity
1,"CCC(=O)O[C@](Cc1ccccc1)(c1ccccc1)[C@H](C)CN(C)C [d-Propoxyphene, reference compound]",toxic

# Tested on: mice
# Experiment: Toxicity and adverse effects noted (comments), mice
# Format: in vivo, mouse
# Details: at 32 mg./kg.
# Text: as §1
row,Compound,mice died
1,COc1ccc(Cl)c2c1CCC(CN1CCC(C(=O)N3CCCC3)CC1)=C2,1/5

# Tested on: Rats
# Experiment: Toxicity and adverse effects noted (comments), rats
# Format: in vivo, rat
# Details: at 32 mg./kg.
# Text: as §1
row,Compound,rats died
1,COc1ccc(Cl)c2c1CCC(CNCC1CC1)=C2,1/5

# Same assay, conditions: at 100 mg./kg.
row,Compound,loss of righting reflex (rats)
1,COc1ccc(Cl)c2c1CCC(CN1CCC(NC(=O)N3CCCCC3)CC1)=C2,1/5
2,COc1ccc(Cl)c2c1CCC(CN1CCC(C(=O)N3CCCCC3)CC1)=C2,2/5
